Measured values: patent US20030129222A1, “Liposomal imexon” (priority 2000, published 2003)
pIC50: −log10 of the molar value. Where two headings read alike, the source gives them in different places.

How the values were obtained:
[1] = substituent constant, from Hansch and Leo or calculated using Clog P software; cited from earlier work
L1210 leukemia, Sens = test: Cytotoxicity in tumor cell culture, MTT assay; format: cell-based, murine; details: MTT assay; read-out: IC50 against human mouse tumors, L1210 leukemia Sens
From the text: (§1) Relative potencies of the N-substituted 2-cyanoaziridine-1-carboxamides in a panel of tumor cell cultures are compared in Table 3. This panel includes the following lines of human tumor cells: sensitive and imexon-resistant lines of multiple myeloma (Matsuoka et al., 1967); ovarian carcinoma resistant to standard drugs (Hamilton et al., 1984); melanoma with a slow growth fraction (Girard et al., 1973); breast carcinoma including sensitive, doxorubicin-resistant (P-glycoprotein-positive) (Taylor et al., 1991), and mitoxantrone-resistant (P-glycoprotein-negative) (Futscher et al., 1994) lines; sensitive and multidrug-resistant colon carcinoma (Noguchi et al., 1979; Dalton et al., 1988); and multidrug-resistant lung carcinoma (P-glycoprotein-negative) (Girard et al., 1973). It also has sensitive (Goldin et al., 1961) and multidrug-resistant (P-glycoprotein-positive) (Salmon and Hersh, 1994) murine L1210 leukemia cells.

L1210 leukemia, Mdr = test: Cytotoxicity in tumor cell culture, MTT assay; format: cell-based, murine; details: MTT assay, multidrug-resistant; read-out: IC50 against human mouse tumors, L1210 leukemia Mdr
From the text: as §1

[2] = system: 8226 myeloma, Res (imexon-resistant); test: Cytotoxicity in tumor cell culture, SRB assay; format: cell-based; details: line made resistant to imexon; read-out: IC50 against human mouse tumors, 8226 myeloma Res
From the text: as §1

WiDr colon, Sens = test: Cytotoxicity in tumor cell culture, SRB assay; format: cell-based; details: read-out: IC50 against human mouse tumors, WiDr colon Sens
From the text: as §1

WiDr colon, res = test: Cytotoxicity in tumor cell culture, SRB assay; format: cell-based; details: multidrug-resistant; read-out: IC50 against human mouse tumors, WiDr colon res
From the text: as §1

[3] = system: 8226 myeloma, Sens (drug-sensitive); test: Cytotoxicity in tumor cell culture, SRB assay; format: cell-based, human; details: for Log(1/C) / IC50: against sensitive myeloma; for IC50: values repeated from Table 3 (μM there), read-out: IC50; for pIC50: drug-sensitive line, read-out: IC50 against human mouse tumors, 8226 myeloma Sens
From the text: as §1

A375 melan = test: Cytotoxicity in tumor cell culture, SRB assay; format: cell-based, human; details: read-out: IC50 against human mouse tumors, A375 melan
From the text: as §1

A-549 lung = test: Cytotoxicity in tumor cell culture, SRB assay; format: cell-based, human; details: read-out: IC50 against human mouse tumors, A-549 lung
From the text: as §1

MCF7 breast, Sens = test: Cytotoxicity in tumor cell culture, SRB assay; format: cell-based, human; details: read-out: IC50 against human mouse tumors, MCF7 breast Sens
From the text: as §1

[4] = system: MCF7 breast, Dox (doxorubicin-resistant); test: Cytotoxicity in tumor cell culture, SRB assay; format: cell-based, human; details: doxorubicin-resistant; read-out: IC50 against human mouse tumors, MCF7 breast Dox
From the text: as §1

[5] = system: MCF7 breast, mitox (mitoxantrone-resistant); test: Cytotoxicity in tumor cell culture, SRB assay; format: cell-based, human; details: mitoxantrone-resistant; read-out: IC50 against human mouse tumors, MCF7 breast mitox
From the text: as §1

OVCAR3 ovarian = test: Cytotoxicity in tumor cell culture, SRB assay; format: cell-based, human; details: read-out: IC50 against human mouse tumors, OVCAR3 ovarian
From the text: as §1

| SMILES | π [1] | pIC50 (L1210 leukemia, Sens) | pIC50 (L1210 leukemia, Mdr) | pIC50 [2] | pIC50 (WiDr colon, Sens) | pIC50 (WiDr colon, res) | Log(1/C) [3] | IC50 [3] [µM] | pIC50 [3] | pIC50 (A375 melan) | pIC50 (A-549 lung) | pIC50 (MCF7 breast, Sens) | pIC50 [4] | pIC50 [5] | pIC50 (OVCAR3 ovarian) |
| --- | --- | --- | --- | --- | --- | --- | --- | --- | --- | --- | --- | --- | --- | --- | --- |
| N#CC1CN1C(=O)Nc1ccc(Cl)cc1Cl (stereo not drawn) [Compound 17, 2-Cyanoaziridine-1-[N-(2,4-dichlorophenyl)]carboxamide] | 3.42 | 3.68 | 4.48 | 5.03 | 5.66 | 5.72 | 5.33 | 4.7 | 5.33 | < 4.41 | 5.60 | 6.05 | 5.96 | 6.46 | 4.46 |
| N#CC1CN1C(=O)Nc1cccnc1 (stereo not drawn) [Compound 24, 2-Cyanoaziridine-1-[N-(3-pyridyl)]carboxamide] | 0.32 | 4.96 | 4.80 | 4.82 | 5.22 | 4.74 | 4.95 | 12 | 4.92 | 4.92 | 4.80 | 5.38 | 5.18 | 5.27 | 5.00 |
| N#CC1CN1C(=O)Nc1ccc([N+](=O)[O-])cc1 (stereo not drawn) [Compound 16, 2-Cyanoaziridine-1-[N-(4-nitrophenyl)]carboxamide] | 1.72 | 5.59 | 5.59 | 5.07 | 5.37 | 5.43 | 5.04 | 9.1 | 5.04 | 5.41 | 5.41 | 5.52 | 5.52 | 5.52 | 5.19 |
| N#CC1CN1C(=O)Nc1cccc2ccccc12 (stereo not drawn) [Compound 23, 2-Cyanoaziridine-1-[N-(1-naphthyl)]carboxamide] | 3.32 | 5.14 | 5.60 | 5.05 | 5.62 | 5.60 | 5.10 | 8 | 5.10 | 5.38 | 5.60 | 5.70 | 5.77 | 5.70 | 5.23 |
| N#CC1CN1C(=O)Nc1ccc(Cl)c(Cl)c1 (stereo not drawn) [Compound 18, 2-Cyanoaziridine-1-[N-(3,4-dichlorophenyl)]carboxamide] | 3.42 | 5.59 | 5.14 | 5.57 | 5.15 | 4.85 | 5.96 | 1.1 | 5.96 | 5.23 | 5.12 | 5.34 | 5.14 | 5.36 | 5.25 |
| N#CC1CN1C(=O)Nc1ccc(F)cc1 (stereo not drawn) [Compound 14, 2-Cyanoaziridine-1-[N-(4-fluorophenyl)]carboxamide] | 2.14 | 5.14 | 5.23 | 5.23 | 5.68 | 5.05 | 5.30 | 5 | 5.30 | 5.47 | 5.21 | 5.72 | 5.62 | 5.57 | 5.23 |
| CC(C)(C)NC(=O)N1CC1C#N (stereo not drawn) [Compound 9, 2-Cyanoaziridine-1-(N-t-butyl) carboxamide] | 1.98 | 3.88 | 3.34 | 3.67 | 3.74 | < 3.52 | 3.92 | 120 | 3.92 | 3.38 | 3.74 | < 3.52 | 3.72 | 3.92 | 3.73 |
| N#CC1CN1C(=O)NCc1ccccc1 (stereo not drawn) [Compound 11, 2-Cyanoaziridine-1-(N-benzyl) carboxamide] | 2.50 | 5.42 | 5.00 | 4.96 | 5.28 | 5.00 | 5.05 | 9 | 5.05 | 4.96 | 5.13 | 5.13 | 5.22 | 5.47 | 5.30 |
| CCCCNC(=O)N1CC1C#N (stereo not drawn) [Compound 8, 2-Cyanoaziridine-1-(N-butyl) carboxamide] | 2.00 | 4.92 | 4.92 | 4.77 | 4.85 | 4.74 | 4.77 | 17 | 4.77 | 4.82 | 4.74 | < 4.92 | 5.17 | < 4.92 | 4.92 |
| CCNC(=O)N1CC1C#N (stereo not drawn) [Compound 7, 2-Cyanoaziridine-1-(N-ethyl) carboxamide] | 1.02 | 4.85 | 4.85 | 4.59 | 5.40 | 5.15 | 4.66 | 22 | 4.66 | 4.44 | 4.74 | 4.54 | 4.70 | 5.00 | 4.85 |
| N#CC1CN1C(=O)Nc1ccc(C(F)(F)F)cc1 (stereo not drawn) [Compound 15, 2-Cyanoaziridine-1-[N-(4-trifluorophenyl)]carboxamide] | 2.88 | 5.11 | 5.15 | 5.11 | 5.89 | 5.24 | 5.09 | 8.2 | 5.09 | 4.93 | 5.37 | 5.82 | 5.85 | 5.89 | 5.23 |
